Square brackets hold non-standard residues; d marks the D form. Peptide text beside a SMILES is read from it. Sar = CNCC(=O)O

Experiment [1] relates to Thy-1+ T-lymphocytes and complement receptor (CR+) B-lymphocytes differentiation. Briefly: In vitro induction of Thy-1+ T cell and CR+ B cell differentiation from nu/nu mouse spleen precursor cells. In kind it is cell-based, nu/nu mice (BALB/c background). Conditions: for Active Concentration Range: induction of Thy-1+ T-lymphocytes and CR+ B-lymphocytes in vitro. As to the method: To determine the activity and characteristics of the peptide of Example I, determinations were carried out on healthy 5-6 week nu/nu mice of both sexes, the mice being bred on a BALB/c background (thymocytes expressing Thy-1.2 surface antigen) and maintained under conventional conditions. For the antisera, anti Thy-1.2 sera were prepared in Thy-1 congenic mice.
For the induction in vitro of Thy-1^+ T cells or CR^+ B cell differentiation, the induction of thymocyte differentiation from prothymocytes in vitro was performed as described by Komuro and Boyse, (Lancet, 1, 740, 1973), using the acquisition of Thy-1.2 as a marker of T cell differentiation. The induction of CR^+ B cell differentiation from CR^- B cell precursors in vitro was performed under similar conditions using as the assay criterion, the capacity of CR^+ B cells to bind sheep erythrocytes coated with subagglutinating quantities of rabbit antibody and nonlytic complement. Spleen cell populations from healthy nu/nu mice fractionated on discontinuous bovine serum albumin gradients were used as the source of both precursor types (Thy-1^- and CR^-) because they have few or no Thy-1^+ cells and low numbers of CR^+ cells.

The conditions of experiment [2]: reference application; cited from earlier work.

As to `NCCCC[C@H](NC(=O)[C@@H](N)CCC(N)=O)C(N)=O` [Example I, H-GLN-LYS-NH2] (H-Gln-Lys-NH2), the “potency relative to the thymopoietin pentapeptide” value in experiment [1] is “same potency as the thymopoietin pentapeptide”. The “ubiquitin-like biological activity (in words)” value in experiment [1] (induction of Thy-1+ T and CR+ B lymphocyte differentiation) is given as “selectivity of actions similar to that of ubiquitin”. Regarding `CNCC(=O)N[C@@H](CCC(N)=O)C(=O)N[C@@H](CCCCN)C(N)=O` [IV, H--SAR--GLN--LYS--NH2] (H-[Sar]-Gln-Lys-NH2), in experiment [1], the “Active Concentration Range” value is 1 to 10 µg/mL. As for `CNCC(=O)N(C)CC(=O)N(C)CC(=O)N[C@@H](CCC(N)=O)C(=O)N[C@@H](CCCCN)C(N)=O` [VI, H--SAR--SAR--SAR--GLN--LYS--NH2] (H-[Sar][Sar][Sar]QK-NH2), the “potency relative to the thymopoietin pentapeptide” value in experiment [1] was “approximately 10 million”.

Regarding `CNCC(=O)N(C)CC(=O)N(C)CC(=O)N(C)CC(=O)N[C@@H](CCC(N)=O)C(=O)N[C@@H](CCCCN)C(N)=O` [VII, H--SAR--SAR--SAR--SAR--GLN--LYS--NH2] (H-[Sar][Sar][Sar][Sar]QK-NH2), the “Active Concentration Range” value in experiment [1] fell in the range of 1e-06 to 0.0001 µg/mL. Turning to H-ALA-ASN-ILE-GLN-LYS-OH (H-ANIQK-OH), the “concentration at which activity is possessed” value in experiment [2] was 0.1 µg/mL. Consider H-TYR-ALA-ILE-GLN-LYS-OH (H-YAIQK-OH), for which, in experiment [2], the “concentration at which activity is possessed” value was 0.1 µg/mL.

For H-TYR-ASN-ALA-GLN-LYS-OH (H-YNAQK-OH), the “concentration at which activity is possessed” value in experiment [2] is 0.1 µg/mL.
